From EP0651055A2 (priority 1993, dated 1995) come the findings set out here.

Data set [1] has as its target T1, recombinant human acetylcholinesterase (HuAChE), wild type (Homo sapiens, UniProt P22303). As to conditions: read-out: Km (ATC); pH 8.
For data set [2], the target named is T1, recombinant human acetylcholinesterase (HuAChE), wild type. It is filed as biochemical.
Data set [3] has as its target recombinant HuAChE mutant Phe338Ala (Homo sapiens, UniProt P22303, F369A). It is filed as biochemical.
The target in data set [4] is recombinant HuAChE mutant Tyr337Ala (Homo sapiens, UniProt P22303, Y368A). It is filed as biochemical.
The target of data set [5] is recombinant HuAChE mutant Glu202Gln (Homo sapiens, UniProt P22303, E233Q). The class given is biochemical.
Data set [6] concerns the target recombinant HuAChE mutant Glu450Ala (Homo sapiens, UniProt P22303, E481A). It is filed as biochemical.
The subject of the next data set is CC(=O)SCC[N+](C)(C)C. The data set is described as follows: purified protein, by the assay type. As to conditions: other: Tyr133Ala, sodium-phosphate buffer pH 8, 27°C.
The next data set has as its system CC(=O)SCCC(C)(C)C. Kind of data set: purified protein, by the assay type. The conditions noted are these: pH 8.0; 27.0 °C.

Chain of recombinant HuAChE mutant Tyr337Ala (P22303 32-614 Y368A limits assumed): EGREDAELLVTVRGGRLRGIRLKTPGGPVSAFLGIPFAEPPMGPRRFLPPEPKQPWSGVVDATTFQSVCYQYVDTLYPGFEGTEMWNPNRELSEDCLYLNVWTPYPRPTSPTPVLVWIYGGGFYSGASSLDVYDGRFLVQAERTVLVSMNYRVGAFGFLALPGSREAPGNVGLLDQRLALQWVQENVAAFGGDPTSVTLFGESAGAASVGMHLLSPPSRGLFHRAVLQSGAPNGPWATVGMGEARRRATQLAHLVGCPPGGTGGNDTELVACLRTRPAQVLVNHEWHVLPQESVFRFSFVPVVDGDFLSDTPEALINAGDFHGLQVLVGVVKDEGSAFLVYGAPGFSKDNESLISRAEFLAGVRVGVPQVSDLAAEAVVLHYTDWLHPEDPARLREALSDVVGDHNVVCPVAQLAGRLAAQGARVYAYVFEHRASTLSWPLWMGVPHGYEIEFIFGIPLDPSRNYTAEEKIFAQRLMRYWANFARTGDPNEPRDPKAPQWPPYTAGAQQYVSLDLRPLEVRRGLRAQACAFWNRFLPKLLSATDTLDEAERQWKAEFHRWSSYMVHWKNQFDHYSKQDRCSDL
Chain of recombinant HuAChE mutant Phe338Ala (P22303 32-614 F369A limits assumed): as the sequence (P22303 32-614 Y368A limits assumed) above, with A337Y, F338A counted along it
T1 sequence (P22303 32-614): as the sequence (P22303 32-614 Y368A limits assumed) above, with A337Y counted along it
Chain of recombinant HuAChE mutant Glu202Gln (P22303 32-614 E233Q limits assumed): as the sequence (P22303 32-614 Y368A limits assumed) above, with E202Q, A337Y counted along it
Chain of recombinant HuAChE mutant Glu450Ala (P22303 32-614 E481A limits assumed): as the sequence (P22303 32-614 Y368A limits assumed) above, with A337Y, E450A counted along it

As to `CC(=O)SCC[N+](C)(C)C.[I-]` [ATC, Acetylthiocholine iodide], the Km – broadly, the substrate concentration at which the rate is half of its maximum – in data set [1] was found to be 130 ± 15 µM.
As to `CCOP(=O)(OCC)Oc1ccc([N+](=O)[O-])cc1` [paraoxon], the “ki (paraoxon) relative to the wild type” value is listed as 97 ±16 (1.00) in data set [2]; 7.1±0.6 (0.07) in data set [3]; 14.4±1.4 (0.15) in data set [4]; 2.8±0.48(0.03) in data set [5]; 1.9±0.7 (0.02) in data set [6]. In addition, the “ki, rate constant of phosphylation (paraoxon)” value in data set [3] (acetylcholinesterase) is 7.1±0.6 (0.07) x 10^-4.M^-1.min^-1; in data set [4] (acetylcholinesterase) it was 14.4±1.4 (0.15) x 10^-4.M^-1.min^-1; in data set [5] (acetylcholinesterase), 2.8±0.48(0.03) x 10^-4.M^-1.min^-1.
For the molecule “recombinant HuAChE mutant Tyr133Ala (Homo sapiens; Y164A)”, in the data set on CC(=O)SCC[N+](C)(C)C, the Km was determined as 5750 µM.
Consider “recombinant human acetylcholinesterase (HuAChE), wild type (Homo sapiens)”, for which the Km with CC(=O)SCCC(C)(C)C turned out to be 280 ± 80 µM.
